Source: patent US12517113B2, “Multikinase degraders” (University of Houston System, priority 2019, dated 2026)

Tests used:
[1] = molecular target: T1, CHK1 kinase (Homo sapiens, UniProt O14757); test: CHK1 degradation in A375 melanoma cells, western blotting; format: cell-based; conditions: western blot; for degradation of CHK1 kinase: 18 h treatment, 37° C., FIG. 6
T1 construct: endogenous in cells; host or cells: A375 human malignant melanoma cells (ATCC)
T1 sequence (O14757 1-476): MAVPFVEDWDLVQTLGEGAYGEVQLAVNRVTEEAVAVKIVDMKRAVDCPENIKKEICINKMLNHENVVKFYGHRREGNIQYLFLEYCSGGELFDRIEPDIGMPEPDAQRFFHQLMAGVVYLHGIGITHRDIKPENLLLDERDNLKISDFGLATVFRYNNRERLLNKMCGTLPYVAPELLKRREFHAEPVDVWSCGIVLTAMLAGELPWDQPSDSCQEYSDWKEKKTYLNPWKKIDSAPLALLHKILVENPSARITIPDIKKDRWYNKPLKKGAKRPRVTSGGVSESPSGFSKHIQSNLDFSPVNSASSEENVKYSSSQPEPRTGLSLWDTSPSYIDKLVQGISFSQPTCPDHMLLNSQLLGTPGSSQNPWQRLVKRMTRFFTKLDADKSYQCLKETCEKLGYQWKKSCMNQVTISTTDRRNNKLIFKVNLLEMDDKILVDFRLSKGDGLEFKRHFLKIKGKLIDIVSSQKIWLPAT
Method: (§1) Tests were performed to determine the activity of the exemplary PROTACs PEG1-thalidomide, PEG2-thalidomide, PEG3-thalidomide, and PEG4-thalidomide having the structures shown above. Human A375 malignant melanoma cells were obtained from American Type Culture Collection ATCC) and cultured according to ATCC protocols. Subsequently cells were treated with the PROTACs for 18 h at 37° C. and 5% CO2. Subsequently cells were harvested and lysed using commercially available lysis buffer (Biorad) containing Roche cOmplete™ Protease Inhibitor Cocktail tablets. The amount of degraded proteins were probed with specific antibodies purchased from Cell Signaling in western blotting. α-Tubulin was used as the loading control.
In further tests, human A375 malignant melanoma cells were treated with PEG2-thalidomide at different concentrations for 12 h at 37° C. and 5% CO2. Proteins CHK1, GAPDH, and α-Tubulin were probed by specific antibodies. GAPDH and α-Tubulin were used as the loading control. […] Cell culture conditions, lysis and western blotting were performed similar to above.

[2] = system: A375 malignant melanoma cells; test: A375 cell viability, CellTiter Glo assay; format: cell-based; conditions: Homo sapiens, A-375, 48 h treatment, 384 well plates, FIG. 10
Method: In further tests, human A375 malignant melanoma cells were treated with PEG2-thalidomide for 48 h at 37° C. and 5% CO2. Subsequently, the viability of A375 malignant melanoma cells was checked using CellTiter Glo assay (Promega) in 384 well plates, and the luminescence signal was quantified using Biotek H1 plate reader.

[3] = system: MEK kinase; test: MEK degradation in A375 melanoma cells, western blotting; format: cell-based, human; conditions: 12 h, western blot, FIG. 8
Method: as §1
(§2) In further tests, the effect of PEG2-Thalidomide degrader […] was tested. Human A375 malignant melanoma cells were treated with PEG2-thalidomide for 12 h at 37° C. and 5% CO2. Proteins MEK and ERK were probed by specific antibodies. The procedure used was similar to the one outlined above.

[4] = system: ERK kinase; test: ERK degradation in A375 melanoma cells, western blotting; format: cell-based, human; conditions: 12 h, western blot, FIG. 8
Method: as §1, §2

Structure (SMILES): N#CCc1ccc(Nc2nc(Nc3cc(C4CC4)[nH]n3)cc(C(=O)NCc3cn(CCOCCOCCOCCOCCNC(=O)COc4cccc5c4C(=O)N(C4CCC(=O)NC4=O)C5=O)nn3)n2)cc1 (stereo not drawn) [PEG4-thalidomide]
- degradation of CHK1 kinase [1]: degrade the protein CHK1

Structure (SMILES): N#CCc1ccc(Nc2nc(Nc3cc(C4CC4)[nH]n3)cc(C(=O)NCc3cn(CCOCCOCCNC(=O)COc4cccc5c4C(=O)N(C4CCC(=O)NC4=O)C5=O)nn3)n2)cc1 (stereo not drawn) [PEG2-thalidomide]
- degradation of CHK1 kinase [1]: degrade the protein CHK1
- dose response of degradation of CHK1 ([1]; different concentrations, 12 h, FIG. 7): demonstrating its degradation
- IC50 [2]: 768 nM
- degradation of MEK kinase [3]: degradation of MEK
- degradation of ERK kinase [4]: not ERK
